In assay [1] the test system is PKC-like activity in CA nuclear extracts. Briefly: PKC activity in nuclear extracts with the PKC-specific substrate peptide MARCKS. In kind it is biochemical, wheat. Here is the method:
FIGS. 5. a) to c) Analysis of endogenous kinases in nuclear extracts from non-acclimated (NA) and cold-acclimated (CA) wheat plants. a) In vitro phosphorylation of nuclear proteins. Equal amounts of nuclear proteins (10 μg) were incubated with [γ-^32P]ATP and separated by SDS-PAGE. The gel was dried and exposed to a X-ray film. b) Immunodetection of a PKCg homolog in nuclear and soluble extracts from non-acclimated (NA) and cold-acclimated (CA) plants. Equal amounts of proteins (10 μg) were separated by SDS-PAGE, blotted onto nitrocellulose membranes and probed with the anti-PKCg antibody. CA2 and CA7 indicate soluble extracts from 2 and 7 days cold-acclimated plants. c) PKC activity was measured in the nuclear extracts with the peptide MARCKS as the PKC-specific substrate and containing the indicated chemicals. […] Aliquotes of each reaction were separated by SDS-PAGE and visualized by autoradiography. PS, phosphatydylserine; DAG, diacylglycerol.
To determine the qualitative changes in the phosphorylation pattern following cold treatment, the nuclear extracts from both NA and CA plants (10 μg protein) were incubated for 5 to 40 min at 30° C. in binding buffer (Harter, K., supra) containing 1 mM MgCl2, 50 μCi [γ-^32P]ATP and 1 mM CaCl2. At specified intervals, reactions were stopped by adding one volume of 2× SDS-sample buffer and the proteins were separated by SDS-PAGE. Gels were dried, exposed to X-ray film and the signal intensity of individual bands was determined by quantitative densitometry. To accurately quantify the Ca^2+-dependent and Ca^2+-independent nuclear kinase activities, the incorporation of ^32P on histone III-S, casein or the PKC-specific substrate peptide MARCKS (Biomol; Blackshear, P. J. (1993) J. Biol. Chem. 268: 1501-1504) was determined as described elsewhere (Kitano, T., et al. (1986) Methods Enzymol. 124: 349-352). Histone III-S and casein are suitable substrates for phosphorylation assays, particularly when dealing with a crude mixture of uncharacterized protein kinases. […]

Assay [2] has as its system WCS120 family of proteins. Kind of assay: In vivo okadaic acid treatment of wheat shoots at low temperature, western blot densitometry of WCS120 proteins. More on the design: species or system wheat (Triticum aestivum L. cv Fredrick). Particulars: 4° C. The method, then: FIGS. 6. a) to c) Effect of in vivo okadaic acid treatment on the accumulation of the cold-inducible WCS120 family of proteins. Wheat seedlings were incubated at low temperature without or with different concentrations of okadaic acid (OA), and soluble proteins were extracted and separated by SDS-PAGE. a) Immunodetection of the WCS120 protein family in the soluble extracts. Following the treatment, the proteins were analyzed by western blot using the anti-WCS120 antibody. b) SDS-PAGE gel stained with Coomassie blue showing equal protein loading. c) Densitometric quantification of the individual protein bands of 50, 66 and 200 kDa of the immunoblot shown in a. The 50 kDa protein is encoded by Wcs120 gene. Values represent averages and standard deviations of the integrated intensity of the pixels for each protein band, excluding the background, from at least three independent experiments.
Wheat shoots were cut and immediately incubated in water or in the presence of the phosphatase inhibitor okadaic acid (OA) at 10, 100 or 1000 nM. The plants were left at room temperature for 4 hours to allow translocation of the inhibitor, then transferred to 4° C. for 24 hours, and the total soluble proteins were extracted as described (Limin, A. E., supra). […] The signal intensity for individual protein bands on the X-ray films was quantified with a Personal Densitometer SI (Molecular Dynamics) using the ImageQuaNT version 4.2 software. […]
To determine the role of protein phosphatases on the expression of Wcs120 gene, wheat seedlings were incubated at 4° C. in the presence of okadaic acid (a potent and specific inhibitor of protein phosphatases PP1 and PP2A) (Smith, R. D., et al. (1996) Annu. Rev. Plant. Physiol. Plant. Mol. Biol. 47:101-125). Soluble proteins were extracted and the accumulation of the WCS120 family of proteins was analyzed by quantitative densitometry of western blots. […]

Where [3] appears, read: 1 μM okadaic acid, densitometric analysis.

These results are taken from patent US6627793B2, “Low temperature-inducible wheat WCS120 gene promoter” (Université du Québec A Montréal, priority 1998, dated 2003).

Turning to `O=C(O)CN(CCOCCOCCN(CC(=O)O)CC(=O)O)CC(=O)O` [EGTA], the “inhibition of the phosphorylation of MARCKS” value in assay [1] (0.5 mM EGTA) is given as “only partial inhibition”.

Regarding `C=C1[C@@H](O)[C@@H]2O[C@]3(CC[C@H](/C=C/[C@@H](C)[C@@H]4CC(C)=C[C@@]5(O[C@H](C[C@@](C)(O)C(=O)O)CC[C@H]5O)O4)O3)CC[C@H]2O[C@@H]1[C@@H](O)C[C@H](C)[C@H]1O[C@@]2(CCCCO2)CC[C@H]1C` [okadaic acid], in assay [2] (setting [3]), the “increase of the 50 and 66 kDa proteins with respect to plants exposed to low temperature without inhibitor” value is on record as 2.2 fold; the “increase of the 200 kDa protein with respect to plants exposed to low temperature without inhibitor” value was found to be 9 fold. In addition, the “accumulation of the 50, 66 and 200 kDa WCS120 proteins at low temperature” value in assay [2] (several concentrations of OA (10, 100 or 1000 nM)) was “significantly stimulated”.

Take Calphostin C: in assay [1] (0.5 mM Calphostin C), the “inhibition of MARCKS phosphorylation (32P incorporation, scintillation counting)” value was “complete inhibition”. In addition, the “inhibition of MARCKS phosphorylation” value in assay [1] (Calphostin C at 0.1 µM) is “did not significantly inhibit”.
